Data taken from patent US7531548B2, “HIV inhibiting 5-carbo- or heterocyclic substituted pyrimidines” (priority 2004, dated 2009).

SMILES | melting point [°C]
Cc1cc(/C=C/C#N)cc(C)c1Nc1nc(Nc2ccc(C#N)cc2)ncc1NCc1cccnc1 | 140
Cc1cc(/C=C/C#N)cc(C)c1Nc1nc(Nc2ccc(C#N)cc2)ncc1CNCc1cccnc1 | 236
CCc1cscn1 | > 250
